“And” between values parts separate entries of the source, which are not always exact repeats. Equal values may be shown once. Inconclusive results and toxic doses are left out. Rule as the data show it: active = T/C of 150% or more; inactive = T/C below 125%.
System: L1210 leukemia ip in BDF1 mice, survival T/C
Assay: NCI In Vivo Anticancer Drug Screen. Data for tumor model L1210 Leukemia (intraperitoneal) in B6D2F1 (BDF1) mice
Conditions: endpoint: mean survival time, higher = longer survival
In short: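 Value reflects the ratio of survival in compound-treated mice to survival in vehicle-treated controls, with both groups carrying the same transplanted tumor.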

[1] = dose: 25.0 mg/kg/injection, schedule: Q01DX009 (ip), vehicle: saline with Tween-80
[2] = dose: 50.0 mg/kg/injection, schedule: Q01DX009 (ip), vehicle: saline with Tween-80
[3] = dose: 75.0 mg/kg/injection, schedule: Q01DX001 (ip), vehicle: saline
[4] = dose: 100.0 mg/kg/injection, schedule: Q01DX009 (ip), vehicle: saline with Tween-80
[5] = dose: 150.0 mg/kg/injection, schedule: Q01DX001 (ip), vehicle: saline
[6] = dose: 100.0 mg/kg/injection, schedule: Q04DX003 (ip), vehicle: acetone
[7] = dose: 200.0 mg/kg/injection, schedule: Q04DX003 (ip), vehicle: acetone
[8] = dose: 400.0 mg/kg/injection, schedule: Q04DX003 (ip), vehicle: acetone
[9] = dose: 100.0 mg/kg/injection, schedule: Q04DX002 (ip), vehicle: saline with Tween-80
[10] = dose: 400.0 mg/kg/injection, schedule: Q01DX001 (ip), vehicle: carboxymethylcellulose (CMC)
[11] = dose: 200.0 mg/kg/injection, schedule: Q01DX009 (ip), vehicle: saline with Tween-80
[12] = dose: 400.0 mg/kg/injection, schedule: Q01DX009 (ip), vehicle: saline with Tween-80
[13] = dose: 100.0 mg/kg/injection, schedule: Q04DX002 (ip), vehicle: saline
[14] = dose: 100.0 mg/kg/injection, schedule: Q04DX003 (ip), vehicle: saline with Tween-80
[15] = dose: 200.0 mg/kg/injection, schedule: Q04DX003 (ip), vehicle: saline with Tween-80
[16] = dose: 400.0 mg/kg/injection, schedule: Q04DX003 (ip), vehicle: saline with Tween-80

Measured: T/C

COC(=O)CC(=O)C=P(c1ccccc1)(c1ccccc1)c1ccccc1
inactive: dose: 12.5 mg/kg/injection, schedule: Q01DX009 (ip), vehicle: saline with Tween-80 98 % of control | [1] 101 % of control | [2] 95 % of control | [3] 96 % of control | [4] 89 % of control | [5] 100 % of control | dose: 300.0 mg/kg/injection, schedule: Q01DX001 (ip), vehicle: saline 93 % of control

O=C(c1ccccc1)C(Cc1ccccc1)C(Cc1ccccc1)c1ccccc1 (stereo unspecified)
inactive: [6] 93 % of control | [7] 98 % of control | [8] 92 % of control

CC1([CH2][Hg][Cl])Cc2ccccc2O1 (stereo unspecified)
inactive: dose: 6.25 mg/kg/injection, schedule: Q04DX003 (ip), vehicle: saline with Tween-80 96 % of control

CN(C)C(=O)NC1CCc2ccc([N+](=O)[O-])cc21 (stereo unspecified)
inactive: [9] 97 % of control | dose: 200.0 mg/kg/injection, schedule: Q04DX002 (ip), vehicle: saline with Tween-80 108 % of control | dose: 400.0 mg/kg/injection, schedule: Q04DX002 (ip), vehicle: saline with Tween-80 119 % of control

Cc1ccc(S(=O)(=O)N(Cc2ccc([N+](=O)[O-])cc2)c2ccccc2)cc1
inactive: dose: 100.0 mg/kg/injection, schedule: Q01DX001 (ip), vehicle: carboxymethylcellulose (CMC) 103 % of control | dose: 200.0 mg/kg/injection, schedule: Q01DX001 (ip), vehicle: carboxymethylcellulose (CMC) 105 % of control | [10] 100 % of control

O=C(Nc1cccc(C2=NCCN2)c1)c1ccc2ccc(C(=O)Nc3cccc(C4=NCCN4)c3)cc2c1
inactive: dose: 15.0 mg/kg/injection, schedule: Q01DX Z (ip), vehicle: carboxymethylcellulose (CMC) 111 % of control | dose: 30.0 mg/kg/injection, schedule: Q01DX Z (ip), vehicle: carboxymethylcellulose (CMC) 102 % of control | dose: 60.0 mg/kg/injection, schedule: Q01DX Z (ip), vehicle: carboxymethylcellulose (CMC) 106 % of control | dose: 120.0 mg/kg/injection, schedule: Q01DX Z (ip), vehicle: carboxymethylcellulose (CMC) 113 % of control | dose: 125.0 mg/kg/injection, schedule: Q01DX Z (ip), vehicle: water 118 % of control

O=C(O)COC1CCC(Cl)CC1 (stereo unspecified)
inactive: [4] 106 % of control | [6] 101 % of control | [11] 94 % of control | [7] 95 % of control | [12] 96 % of control | [8] 91 % of control

C/C=C/C=C\COC(=O)C1CCCC1
inactive: [13] 103 % of control and 107 % of control | dose: 200.0 mg/kg/injection, schedule: Q04DX002 (ip), vehicle: saline 96 % of control and 98 % of control | dose: 400.0 mg/kg/injection, schedule: Q04DX002 (ip), vehicle: saline 107 % of control | dose: 600.0 mg/kg/injection, schedule: Q04DX002 (ip), vehicle: saline 107 % of control

CCC[n+]1cccc(C#N)c1
inactive: dose: 37.5 mg/kg/injection, schedule: Q04DX003 (ip), vehicle: saline 97 % of control | [3] 94 % of control | dose: 75.0 mg/kg/injection, schedule: Q04DX003 (ip), vehicle: saline 100 % of control | [5] 103 % of control

CCCC(=O)Nc1ccn(C2OC(COC(=O)CCC)C(OC(=O)CCC)C2OC(=O)CCC)c(=O)n1 (stereo unspecified)
inactive: dose: 177.0 mg/kg/injection, schedule: Q01DX001 (ip), vehicle: carboxymethylcellulose (CMC) 101 % of control | dose: 266.0 mg/kg/injection, schedule: Q01DX001 (ip), vehicle: carboxymethylcellulose (CMC) 116 % of control | [10] 117 % of control

CC1(C)C2CCC1C(O)C2 (stereo unspecified)
inactive: dose: 75.0 mg/kg/injection, schedule: Q01DX009 (ip), vehicle: saline 104 % of control | dose: 150.0 mg/kg/injection, schedule: Q01DX009 (ip), vehicle: saline 103 % of control | dose: 300.0 mg/kg/injection, schedule: Q01DX009 (ip), vehicle: saline 94 % of control

Nc1c(F)c(F)c(-c2c(F)c(F)c(N)c(F)c2F)c(F)c1F
inactive: dose: 37.5 mg/kg/injection, schedule: Q04DX003 (ip), vehicle: saline with Tween-80 98 % of control | dose: 75.0 mg/kg/injection, schedule: Q04DX003 (ip), vehicle: saline with Tween-80 102 % of control | dose: 150.0 mg/kg/injection, schedule: Q04DX003 (ip), vehicle: saline with Tween-80 95 % of control

Nc1nc(N)c(-c2ccc(Cl)c(Cl)c2)c(CCc2ccc(S(=O)(=O)F)cc2)n1
inactive: dose: 100.0 mg/kg/injection, schedule: Q01DX009 (ip), vehicle: Klucel (hydroxypropylcellulose) (HPC) 112 % of control | dose: 200.0 mg/kg/injection, schedule: Q01DX009 (ip), vehicle: Klucel (hydroxypropylcellulose) (HPC) 98 % of control

O=C(Cc1c[nH]c2ccccc12)N=Nc1c(O)[nH]c2ccccc12
inactive: dose: 100.0 mg/kg/injection, schedule: Q01DX001 (ip), vehicle: other 102 % of control | dose: 200.0 mg/kg/injection, schedule: Q01DX001 (ip), vehicle: other 101 % of control | dose: 400.0 mg/kg/injection, schedule: Q01DX001 (ip), vehicle: other 93 % of control

CNC1CC2CCC1(C)C2(C)C (stereo unspecified)
inactive: [13] 96 % of control

Cc1cc2c(cc1[N+](=O)[O-])OCCO2
inactive: [14] 93 % of control | [15] 89 % of control | [16] 88 % of control

OC/C(=N/Nc1ccc2ccccc2n1)c1ccccc1
inactive: [4] 94 % of control | [14] 93 % of control | [11] 93 % of control | [15] 100 % of control | [12] 93 % of control | [16] 89 % of control

NNCCO
inactive: [1] 97 % of control | dose: 25.0 mg/kg/injection, schedule: Q04DX002 (ip), vehicle: saline with Tween-80 94 % of control | [2] 106 % of control | dose: 50.0 mg/kg/injection, schedule: Q04DX002 (ip), vehicle: saline with Tween-80 105 % of control | [9] 106 % of control

O=C(Nc1cccc(Cl)c1)C1CCCC1=Nc1cccc(Cl)c1 (stereo unspecified)
inactive: dose: 50.0 mg/kg/injection, schedule: Q01DX001 (ip), vehicle: saline 103 % of control | dose: 100.0 mg/kg/injection, schedule: Q01DX001 (ip), vehicle: saline 100 % of control | dose: 200.0 mg/kg/injection, schedule: Q01DX001 (ip), vehicle: saline 103 % of control | dose: 400.0 mg/kg/injection, schedule: Q01DX001 (ip), vehicle: saline 94 % of control

CCCCCCCCC(C)NCCOC(=O)c1ccc([N+](=O)[O-])cc1 (stereo unspecified)
inactive: dose: 75.0 mg/kg/injection, schedule: Q01DX001 (ip), vehicle: other 89 % of control | dose: 150.0 mg/kg/injection, schedule: Q01DX001 (ip), vehicle: other 89 % of control

CC(=O)[O][Pb]([CH2]CC(C)C)([CH2]CC(C)C)[CH2]CC(C)C
inactive: dose: 0.78 mg/kg/injection, schedule: Q01DX009 (ip), vehicle: saline with Tween-80 98 % of control | dose: 0.78 mg/kg/injection, schedule: Q04DX002 (ip), vehicle: saline with Tween-80 95 % of control | dose: 1.56 mg/kg/injection, schedule: Q01DX009 (ip), vehicle: saline with Tween-80 97 % of control | dose: 1.56 mg/kg/injection, schedule: Q04DX002 (ip), vehicle: saline with Tween-80 92 % of control | dose: 3.12 mg/kg/injection, schedule: Q01DX009 (ip), vehicle: saline with Tween-80 95 % of control | dose: 3.12 mg/kg/injection, schedule: Q04DX002 (ip), vehicle: saline with Tween-80 92 % of control

CC1(C)N=C(N)N=C(N)N1c1ccc(OCCNS(=O)(=O)c2ccc(S(=O)(=O)F)cc2)c(Cl)c1
inactive: [14] 105 % of control

Cc1nc(Cl)cc(Cl)n1
inactive: dose: 100.0 mg/kg/injection, schedule: Q04DX003 (ip), vehicle: Klucel (hydroxypropylcellulose) (HPC) 90 % of control | dose: 200.0 mg/kg/injection, schedule: Q04DX003 (ip), vehicle: Klucel (hydroxypropylcellulose) (HPC) 90 % of control | dose: 400.0 mg/kg/injection, schedule: Q04DX003 (ip), vehicle: Klucel (hydroxypropylcellulose) (HPC) 97 % of control
